{
  "source": "patent US8961930B2",
  "about": "“Isatin derivatives for use as in vivo imaging agents” (Imperial Innovations Limited, priority 2008, dated 2015)",
  "key": {"[1]": {"test_system": "caspase-3 cognate target poly(ADP-ribose) polymerase (PARP)", "test": "Cellular activity: PARP cleavage immunoblot in cisplatin-treated RIF-1 cells", "assay_type": "cell-based, murine", "details": "15 min pre-incubation, cisplatin 100 μM 48 h", "from_the_text": "The Δ-PARP immunoblot band corresponds to the endogenous 89 kDa large fragment of PARP resulting from caspase 3 cleavage. α-tubulin was used as a loading control."}, "[2]": {"test_system": "LNM35 cells", "test": "In vitro [^18F]11 uptake in LNM35 cells", "assay_type": "cell-based, human", "details": "100 μM CDDP or VP-16, 60 min uptake", "from_the_text": "(§1) The human ovarian carcinoma cell lines PEO1/4 were established and characterised as described in Wolf C. R. et al.^22 and Langdon S. P. et al^23. Briefly, PEO1/4 cells were derived from the malignant ascites of a patient with a recurrent mucinous ovarian adenocarcinoma, before (PEO1) and after (PEO4) the onset of a clinical resistance to cisplatin chemotherapy in this patient. The radiation-induced murine fibrosarcoma (RIF-1) tumour cell line was originally characterised by Twentyman P. R. et al.^20. The LNM35 tumour cells are a highly lymphogenous metastatic subline of the human large pulmonary carcinoma NCI-H460 cell line, as described in Kozaki K. et al.^24. […]\n(§2) Cells were plated in triplicate in 12-well plates 2 or 3 days prior to the experiments and treated with the antineoplastic platinum-derived drug Cisplatin, 5-FU, the protein synthesis inhibitor cycloheximide (CHX) or the topoisomerase inhibitor etoposide (VP-16) (Sigma, UK) or corresponding vehicle at the indicated concentration and time. […] 260 μL of each sample were transferred in counting tubes and Fluorine-18 radioactivity was immediately determined using a Packard Cobra II gamma counter (Perkin Elmer, UK). […] BCA Protein assay (Pierce, UK) was performed for all samples and datas are normalized and expressed as CCPMA or RLU (Relative Light Unit)/mg of protein."}, "[3]": {"test_system": "RIF-1 cells", "test": "In vitro [^18F]11 uptake in RIF-1 cells", "assay_type": "cell-based, murine", "from_the_text": "as §1\nas §2, with “protein. […]” for “protein.”"}, "[4]": {"test": "In vivo biodistribution studies (Example 5)", "set-up": "species or system C3H/hej mice", "details": "i.v., 2-60 min", "procedure": "The stability of novel compound [^18F]11 and known compound [^125I]14 in plasma and liver was measured over time following administration in mice. [^18F]11 was injected intravenously into tumor-bearing mice and its tissue distribution was measured in selected tissues at 2, 15 and 60 min after injection. [^125I]14 was injected intravenously into non-tumour bearing mice and its tissue distribution was measured at selected time points from 2 to 60 minutes after injection. Furthermore, the in vivo metabolic stability of the radiotracer was determined from plasma and liver samples and, for [^18F]11, in urine samples.\nThe radiation-induced murine fibrosarcoma (RIF-1) tumour cells^20 were maintained in RPMI 1640 medium (Invitrogen Ltd, Paisley, UK) supplemented with 10% fetal calf serum (BioWhittaker Europe Ltd, Verviers, Belgium), 2 mM L-glutamine, 100 U/mL penicillin, 100 μg/mL streptomycin and 0.25 μg/mL fungizone (Gibco, UK) at 37° C. in a humidified incubator with 5% CO2. All animal work was done by licensed investigators in accordance with the United Kingdom's “Guidance on the Operation of Animals (Scientific Procedures) Act 1986” (HMSO, London, United Kingdom, 1990) and in full compliance with government regulations and guidelines on the welfare of animals in experimental neoplasia^21. Tumors were established in mice by subcutaneous injection of 5×10^5 cells on the back of male C3H/hej mice (Harlan, Bicester, Oxfordshire, UK). Tumour growth was monitored every two days using electronic callipers, and tumor volume estimated using the equation (π/6)×L×W×D (L=length, W=width and D=depth). Animals were selected for biodistribution studies of [^18F]11 when the tumors reached ˜100-150 mm^3; biodistribution of [^125I]14 was done in non-tumor-bearing mice.\nMice were injected intravenously via the lateral vein with 0.08-0.13 mL of radioactivity (˜0.37 MBq of [^125I]14 or 3.7 MBq of [^18F]11) dissolved in phosphate buffered saline. At selected times after injection (2-60 min) mice were sacrificed by exsanguination via cardiac puncture under general anesthesia (isofluorane inhalation). Aliquots of heparinised blood were rapidly centrifuged (2000 g for 5 minutes) to obtain plasma. The radioactivity contained in tissues was determined by gamma-counting on a Cobra II Auto-Gamma counter (Packard Instruments, Meriden, Conn., USA) and expressed as a percentage of injected dose per gram of tissue (% ID/g). A minimum of three mice was used for each time point. All animals were treatment-naïve."}},
  "data": [
    {"molecule": "O=C1C(=O)N(Cc2cn(CCF)nn2)c2ccc(S(=O)(=O)N3CCC[C@H]3COc3ccc(F)cc3F)cc21", "note": "[Compound 11, (S)-1-((1-(2-Fluoroethyl)-1H-[1,2,3]-triazol-4-yl)methyl)-5-(2(2,4-difluorophenoxymethyl)-pyrrolidine-1-sulfonyl)isatin]", "values": [
      {"measurement": "effect on induction of cleaved PARP by cisplatin induced apoptosis", "setting": "[1]", "result": "disrupted the induction of caspase-3 cognate target PARP by cisplatin induced apoptosis"}
    ]},
    {"molecule": "O=C1C(=O)N(Cc2cn(CC[18F])nn2)c2ccc(S(=O)(=O)N3CCC[C@H]3COc3ccc(F)cc3F)cc21", "note": "[[^18F]11, (S)-1-((1-(2-Fluoroethyl)-1H-[1,2,3]-triazol-4-yl)methyl)-5-(2(2,4-difluorophenoxymethyl)-pyrrolidine-1-sulfonyl)isatin]", "values": [
      {"measurement": "[^18F]11 uptake in drug-treated cells compared to control", "setting": "[2]", "result": "significantly increased"},
      {"measurement": "increase in uptake in apoptotic cells", "setting": "[3]; CDDP 100 μM 48 h vs vehicle, 1 h incubation", "result": "~1.5", "unit": "fold"},
      {"measurement": "[^18F]11 uptake in drug-treated cells compared to control", "setting": "[3]; CDDP or CHX 10 μg/mL 24 h, 60 min uptake", "result": "significantly increased"},
      {"measurement": "Bone uptake", "setting": "[4]; RIF-1 tumor-bearing mice", "result": "low"},
      {"measurement": "uptake in untreated tumors, heart and brain", "setting": "[4]; RIF-1 tumor-bearing mice", "result": "low"},
      {"measurement": "tissue distribution and elimination", "setting": "[4]; mice", "result": "distributed rapidly to tissues and was also rapidly eliminated"}
    ]}
  ]
}
